pIC50: −log10 of the molar value. Structures can show the parent of a compound that is named as a salt. Where two headings read alike, the source gives them in different places.
How the values were obtained:
Ca2+ Channel N-Type = Ca2+ Channel N-Type (Rattus norvegicus, UniProt Q02294); test: biochemical; assay type: binding
NMDA receptor (PCP) = test: radioligand competition binding, [3H]TCP; set-up: species or system rat
Endothelin receptor ETA = biological target: T1, Endothelin receptor ETA (Homo sapiens, UniProt P25101); test: radioligand competition binding, [125I]Endothelin-1
T1 construct: Eurofins

[1] = biological target: T2, D2S (dopaminergic receptor) (Homo sapiens, UniProt P14416); test: radioligand competition binding, [3H]7-OH-DPAT; conditions: read-out: % inhibition of the specific radioligand binding
T2 construct: Eurofins

β1 (adrenergic receptor) = biological target: T3, β1 (adrenergic receptor) (Homo sapiens, UniProt P08588); test: radioligand competition binding, [3H](-)CGP 12177
T3 construct: Eurofins

MDR1 (P-gp) = test: MDR1-MDCK II permeability assay; assay type: in vitro ADME; conditions: dog, MDCK-MDR1, pH 7.4
MDR1 = test: MDR1-MDCK II permeability assay; assay type: in vitro ADME; conditions: dog, MDCK-MDR1, pH 7.4, Table S6
hERG K+ channel = biological target: T4, hERG K+ channel (Homo sapiens, UniProt Q12809); test: radioligand competition binding, [3H]Astemizole; conditions: human, probe [3H]Astemizole; read-out: % inhibition of the specific radioligand binding
T4 construct: Eurofins

K+ Channel (hERG) = biological target: T5, K+ Channel (hERG) (Homo sapiens, UniProt Q12809); test: radioligand competition binding, [3H]Astemizole; conditions: estimated from the % inhibition data
T5 construct: Eurofins

Tachykinin receptor NK3 = biological target: T6, Tachykinin receptor NK3 (Homo sapiens, UniProt P29371); test: radioligand competition binding, [125I]MePhe7-Neurokinin B
T6 construct: Eurofins (contract laboratory)

5-HT1A = biological target: T7, 5-HT1A (Homo sapiens, UniProt P08908); test: radioligand competition binding, [3H]8-OH-DPAT
T7 construct: Eurofins
T7 sequence (P08908 1-422): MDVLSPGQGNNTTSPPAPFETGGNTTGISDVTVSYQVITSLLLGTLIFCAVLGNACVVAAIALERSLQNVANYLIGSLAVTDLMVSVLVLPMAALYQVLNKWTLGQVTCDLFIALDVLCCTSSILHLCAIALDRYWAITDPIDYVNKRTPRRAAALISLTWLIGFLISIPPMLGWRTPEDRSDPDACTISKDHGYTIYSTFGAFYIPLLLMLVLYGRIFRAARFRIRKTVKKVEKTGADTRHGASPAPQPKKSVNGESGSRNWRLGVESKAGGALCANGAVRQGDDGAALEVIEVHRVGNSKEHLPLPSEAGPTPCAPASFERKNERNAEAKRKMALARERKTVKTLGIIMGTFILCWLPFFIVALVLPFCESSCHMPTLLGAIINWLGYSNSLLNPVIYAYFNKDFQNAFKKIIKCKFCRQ

5-HT1B = biological target: T8, 5-HT1B (Homo sapiens, UniProt P28222); test: radioligand competition binding, [3H]GR125743
T8 construct: Eurofins

[2] = biological target: T9, Nicotinic acetylcholine receptor α3β4 (Homo sapiens, UniProt P30926+P32297); test: radioligand competition binding, [125I]Epibatidine
T9 construct: Eurofins

Sigma receptor σ1 = biological target: T10, Sigma receptor σ1 (Homo sapiens, UniProt Q99720); test: radioligand competition binding, [3H]Pentazocine
T10 construct: Eurofins (contract laboratory)

Opioid receptor κ = biological target: T11, Opioid receptor κ (Homo sapiens, UniProt P41145); test: radioligand competition binding, [3H]Diprenorphine (first line)
T11 construct: Eurofins

Phorbol ester = test: radioligand competition binding, [3H]PDBu; set-up: species or system mouse
[3] = biological target: T12, H1 (histaminergic receptor) (Homo sapiens, UniProt P35367); test: radioligand competition binding, [3H]pyrilamine
T12 construct: Eurofins

M3 (muscarinic receptor) = biological target: T13, M3 (muscarinic receptor) (Homo sapiens, UniProt P20309); test: radioligand competition binding, [3H]4-DAMP
T13 construct: Eurofins

Melatonin receptor MT1 = biological target: T14, Melatonin receptor MT1 (Homo sapiens, UniProt P48039); test: radioligand competition binding, [125I]2-Iodomelatonin
T14 construct: Eurofins

[4] = read-out: % inhibition of the specific radioligand binding
[5] = estimated from the % inhibition data

## COc1cc(C(F)(F)F)c(OC)cc1[C@@H]1CCCNC1 [(S)-11, 3-(2,5-Dimethoxy-4-(trifluoromethyl)phenyl)piperidine Hydrochloride]
Ca2+ Channel N-Type
  pIC50: < 5.00
Ca2+ Channel N-Type; [4]
  inhibition at 10 µM: -5%
NMDA receptor (PCP); (S)-11 10 μM, n=1
  % inhibition of the specific radioligand binding: 4%
NMDA receptor (PCP); [5]
  pIC50: < 5.00
Endothelin receptor ETA; [5]
  pIC50: < 5.00
Endothelin receptor ETA; [4]
  inhibition at 10 µM: 12%
[1]
  inhibition at 10 µM: 59%
β1 (adrenergic receptor); [5]
  pIC50: < 5.00
β1 (adrenergic receptor); [4]
  inhibition at 10 µM: 38%
MDR1 (P-gp)
  Papp A→B at […]: 18.4 ×10⁻⁶ cm/s
  Papp B→A at […]: 17.3 ×10⁻⁶ cm/s
MDR1 (P-gp); Figure 6
  Papp A→B at […], 2 µM: 18.6 ×10⁻⁶ cm/s
  Papp B→A at […], 2 µM: 17.3 ×10⁻⁶ cm/s
MDR1; read-out: Mean Recovery A to B
  recovery at […]: 70%
MDR1; read-out: Mean Recovery B to A
  recovery at […]: 92%
hERG K+ channel
  inhibition at 10 µM: 32%
K+ Channel (hERG)
  pIC50: < 5.00
Tachykinin receptor NK3; [5]
  pIC50: < 5.00
Tachykinin receptor NK3; [4]
  inhibition at 10 µM: 14%
5-HT1A; [5]
  pIC50: 6.00 to 7.00
5-HT1A; [4]
  inhibition at 0.1 µM: 20%
  inhibition at 1 µM: 64%
  inhibition at 10 µM: 90%
5-HT1B; [5]
  pIC50: 5.00 to 6.00
5-HT1B; [4]
  inhibition at 1 µM: 21%
  inhibition at 10 µM: 68%
[2]
  pIC50: ~5.00
[2]; [4]
  inhibition at 10 µM: 51%
Sigma receptor σ1; [5]
  pIC50: 5.00 to 6.00
Sigma receptor σ1; [4]
  inhibition at 10 µM: 84%
Opioid receptor κ; [5]
  pIC50: < 5.00
Opioid receptor κ; [4]
  inhibition at 10 µM: 18%
Phorbol ester; (S)-11 10 μM, n=1
  % inhibition of the specific radioligand binding: 15%
Phorbol ester; [5]
  pIC50: < 5.00
[3]; [5]
  pIC50: 5.00 to 6.00
[3]; [4]
  inhibition at 1 µM: 19%
  inhibition at 10 µM: 64%
M3 (muscarinic receptor); [5]
  pIC50: ~6.00
M3 (muscarinic receptor); [4]
  inhibition at 1 µM: 41%
  inhibition at 10 µM: 90%
Melatonin receptor MT1; [5]
  pIC50: < 5.00
Melatonin receptor MT1; [4]
  inhibition at 10 µM: 7%
